Activity calls are given as the source filed them. For most assays here, no stated cut-off is given here; in the data, actives have a measured Kd and inactives only a lower limit.
Experiments:
[1] = target: Rho-associated protein kinase 2 (Homo sapiens, UniProt O75116)
[2] = target: T1, Cytochrome c1, heme protein, mitochondrial (Homo sapiens, UniProt P08574)
T1 sequence (P08574 whole entry): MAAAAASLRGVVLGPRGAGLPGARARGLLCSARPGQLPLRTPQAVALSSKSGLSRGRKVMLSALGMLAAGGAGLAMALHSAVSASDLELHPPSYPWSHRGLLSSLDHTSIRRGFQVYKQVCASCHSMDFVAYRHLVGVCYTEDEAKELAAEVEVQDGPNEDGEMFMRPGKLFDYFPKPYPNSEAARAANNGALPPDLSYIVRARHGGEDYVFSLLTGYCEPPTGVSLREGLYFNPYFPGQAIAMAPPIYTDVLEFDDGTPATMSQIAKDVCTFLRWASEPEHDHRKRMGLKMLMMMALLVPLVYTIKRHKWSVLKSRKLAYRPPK

[3] = target: T2, Serine/threonine-protein kinase ULK3 (Homo sapiens, UniProt Q6PHR2)
T2 sequence (Q6PHR2 whole entry): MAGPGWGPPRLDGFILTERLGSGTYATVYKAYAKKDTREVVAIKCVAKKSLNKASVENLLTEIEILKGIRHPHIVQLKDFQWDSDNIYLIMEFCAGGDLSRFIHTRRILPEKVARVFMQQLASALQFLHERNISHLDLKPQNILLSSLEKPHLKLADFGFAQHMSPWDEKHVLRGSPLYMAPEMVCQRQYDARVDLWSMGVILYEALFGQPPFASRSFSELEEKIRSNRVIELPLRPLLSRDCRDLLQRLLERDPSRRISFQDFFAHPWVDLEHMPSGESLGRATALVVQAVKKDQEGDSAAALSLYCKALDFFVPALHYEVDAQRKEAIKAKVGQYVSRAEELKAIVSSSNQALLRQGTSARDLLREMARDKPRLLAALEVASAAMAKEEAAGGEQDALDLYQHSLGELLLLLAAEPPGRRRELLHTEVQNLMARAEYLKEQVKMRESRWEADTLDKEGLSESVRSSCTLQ

[4] = target: T3, Bifunctional phosphoribosylaminoimidazole carboxylase/phosphoribosylaminoimidazole succinocarboxamide synthetase (Homo sapiens, UniProt P22234)
T3 sequence (P22234 whole entry): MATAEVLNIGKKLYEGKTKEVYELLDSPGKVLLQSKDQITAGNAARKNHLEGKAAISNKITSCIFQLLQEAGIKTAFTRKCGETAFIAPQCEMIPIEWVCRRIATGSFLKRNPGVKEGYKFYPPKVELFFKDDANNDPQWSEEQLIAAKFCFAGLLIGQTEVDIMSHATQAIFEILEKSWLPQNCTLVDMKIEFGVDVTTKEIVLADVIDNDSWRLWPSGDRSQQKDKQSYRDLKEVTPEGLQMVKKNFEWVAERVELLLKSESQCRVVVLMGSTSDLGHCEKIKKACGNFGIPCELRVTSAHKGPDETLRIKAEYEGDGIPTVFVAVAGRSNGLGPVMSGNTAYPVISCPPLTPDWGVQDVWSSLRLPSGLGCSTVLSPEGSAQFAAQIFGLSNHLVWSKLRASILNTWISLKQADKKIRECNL

[5] = target: T4, EKC/KEOPS complex subunit TP53RK (Homo sapiens, UniProt Q96S44)
T4 sequence (Q96S44 whole entry): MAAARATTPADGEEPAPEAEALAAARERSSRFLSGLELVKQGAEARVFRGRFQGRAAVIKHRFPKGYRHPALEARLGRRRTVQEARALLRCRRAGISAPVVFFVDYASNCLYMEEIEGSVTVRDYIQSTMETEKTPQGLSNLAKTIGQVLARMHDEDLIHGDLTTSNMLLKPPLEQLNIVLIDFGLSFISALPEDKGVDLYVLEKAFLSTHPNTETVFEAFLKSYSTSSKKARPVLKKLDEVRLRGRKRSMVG

[6] = target: Insulin receptor (Homo sapiens, UniProt P06213)
Insulin receptor, sequence (P06213 28-758 limits assumed): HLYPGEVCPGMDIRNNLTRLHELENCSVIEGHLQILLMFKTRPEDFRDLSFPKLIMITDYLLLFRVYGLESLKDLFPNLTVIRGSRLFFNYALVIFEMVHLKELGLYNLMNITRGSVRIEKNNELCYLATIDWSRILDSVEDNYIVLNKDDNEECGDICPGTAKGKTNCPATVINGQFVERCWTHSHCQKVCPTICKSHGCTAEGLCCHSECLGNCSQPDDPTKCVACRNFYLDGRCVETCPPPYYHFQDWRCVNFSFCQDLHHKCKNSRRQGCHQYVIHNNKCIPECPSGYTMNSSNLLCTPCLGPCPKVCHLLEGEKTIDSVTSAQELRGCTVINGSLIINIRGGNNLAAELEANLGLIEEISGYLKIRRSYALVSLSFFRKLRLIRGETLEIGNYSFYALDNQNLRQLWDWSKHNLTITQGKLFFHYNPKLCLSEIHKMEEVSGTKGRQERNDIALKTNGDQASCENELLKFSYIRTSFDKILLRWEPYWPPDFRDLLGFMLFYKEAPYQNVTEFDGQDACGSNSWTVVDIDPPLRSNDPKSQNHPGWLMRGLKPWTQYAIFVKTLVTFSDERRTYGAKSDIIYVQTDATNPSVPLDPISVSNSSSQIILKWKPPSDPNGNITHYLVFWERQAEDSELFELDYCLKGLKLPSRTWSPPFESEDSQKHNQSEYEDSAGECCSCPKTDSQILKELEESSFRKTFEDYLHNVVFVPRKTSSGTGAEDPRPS
Insulin receptor, sequence (P06213 763-1382 limits assumed): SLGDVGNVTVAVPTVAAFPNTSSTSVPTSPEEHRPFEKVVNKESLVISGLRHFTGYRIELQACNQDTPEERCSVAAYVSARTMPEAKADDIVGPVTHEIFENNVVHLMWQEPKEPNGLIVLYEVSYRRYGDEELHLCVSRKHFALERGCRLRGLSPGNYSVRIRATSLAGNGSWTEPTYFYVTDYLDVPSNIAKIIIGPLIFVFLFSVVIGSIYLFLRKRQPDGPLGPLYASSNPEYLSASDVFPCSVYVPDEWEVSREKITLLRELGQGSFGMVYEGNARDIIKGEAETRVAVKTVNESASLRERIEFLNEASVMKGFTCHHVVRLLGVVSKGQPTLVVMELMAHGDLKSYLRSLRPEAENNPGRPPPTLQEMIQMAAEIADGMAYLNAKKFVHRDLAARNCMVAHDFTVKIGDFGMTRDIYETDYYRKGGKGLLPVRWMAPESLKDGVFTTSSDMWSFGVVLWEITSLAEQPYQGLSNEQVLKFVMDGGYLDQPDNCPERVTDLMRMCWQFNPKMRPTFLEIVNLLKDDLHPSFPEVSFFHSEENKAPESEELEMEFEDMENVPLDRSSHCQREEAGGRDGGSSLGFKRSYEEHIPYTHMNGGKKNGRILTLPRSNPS

[7] = target: T5, Serine/threonine-protein kinase STK11 (Homo sapiens, UniProt Q15831)
T5 sequence (Q15831 whole entry): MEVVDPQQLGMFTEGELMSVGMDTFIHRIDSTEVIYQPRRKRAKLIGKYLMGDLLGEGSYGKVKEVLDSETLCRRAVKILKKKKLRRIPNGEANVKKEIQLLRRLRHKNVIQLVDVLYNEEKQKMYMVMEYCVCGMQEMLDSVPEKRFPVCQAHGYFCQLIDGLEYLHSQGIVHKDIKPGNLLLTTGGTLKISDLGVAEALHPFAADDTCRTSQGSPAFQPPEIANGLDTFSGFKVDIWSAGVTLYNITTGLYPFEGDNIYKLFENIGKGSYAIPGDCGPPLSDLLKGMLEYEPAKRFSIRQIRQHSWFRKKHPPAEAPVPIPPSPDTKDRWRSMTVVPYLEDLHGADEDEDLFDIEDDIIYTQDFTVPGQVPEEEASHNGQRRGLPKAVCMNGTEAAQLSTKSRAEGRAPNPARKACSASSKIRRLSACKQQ

[8] = target: T6, Mitogen-activated protein kinase kinase kinase kinase 2 (Homo sapiens, UniProt Q12851)
T6 sequence (Q12851 whole entry): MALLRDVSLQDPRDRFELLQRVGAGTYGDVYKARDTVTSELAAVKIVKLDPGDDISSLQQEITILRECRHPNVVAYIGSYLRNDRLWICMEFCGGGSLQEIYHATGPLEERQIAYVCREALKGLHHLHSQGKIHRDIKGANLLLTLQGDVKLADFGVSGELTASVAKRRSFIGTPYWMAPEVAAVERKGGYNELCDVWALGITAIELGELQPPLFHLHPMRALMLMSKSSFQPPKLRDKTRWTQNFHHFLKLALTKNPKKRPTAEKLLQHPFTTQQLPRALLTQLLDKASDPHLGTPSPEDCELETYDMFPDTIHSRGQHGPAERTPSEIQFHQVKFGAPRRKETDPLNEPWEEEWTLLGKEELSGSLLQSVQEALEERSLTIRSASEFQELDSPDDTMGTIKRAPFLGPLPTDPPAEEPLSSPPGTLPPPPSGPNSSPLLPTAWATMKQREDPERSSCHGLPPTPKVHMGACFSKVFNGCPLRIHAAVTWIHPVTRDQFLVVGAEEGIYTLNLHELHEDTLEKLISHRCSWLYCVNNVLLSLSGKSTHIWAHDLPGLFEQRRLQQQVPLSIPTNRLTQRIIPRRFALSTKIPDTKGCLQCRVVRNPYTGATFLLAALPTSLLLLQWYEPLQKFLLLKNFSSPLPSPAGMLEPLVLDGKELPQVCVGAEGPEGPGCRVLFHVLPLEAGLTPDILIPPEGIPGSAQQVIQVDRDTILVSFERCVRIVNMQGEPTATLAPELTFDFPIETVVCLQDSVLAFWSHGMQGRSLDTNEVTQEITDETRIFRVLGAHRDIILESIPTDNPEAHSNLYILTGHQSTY

[9] = target: Glycogen synthase kinase-3 alpha (Homo sapiens, UniProt P49840)
Glycogen synthase kinase-3 alpha, sequence (P49840 whole entry): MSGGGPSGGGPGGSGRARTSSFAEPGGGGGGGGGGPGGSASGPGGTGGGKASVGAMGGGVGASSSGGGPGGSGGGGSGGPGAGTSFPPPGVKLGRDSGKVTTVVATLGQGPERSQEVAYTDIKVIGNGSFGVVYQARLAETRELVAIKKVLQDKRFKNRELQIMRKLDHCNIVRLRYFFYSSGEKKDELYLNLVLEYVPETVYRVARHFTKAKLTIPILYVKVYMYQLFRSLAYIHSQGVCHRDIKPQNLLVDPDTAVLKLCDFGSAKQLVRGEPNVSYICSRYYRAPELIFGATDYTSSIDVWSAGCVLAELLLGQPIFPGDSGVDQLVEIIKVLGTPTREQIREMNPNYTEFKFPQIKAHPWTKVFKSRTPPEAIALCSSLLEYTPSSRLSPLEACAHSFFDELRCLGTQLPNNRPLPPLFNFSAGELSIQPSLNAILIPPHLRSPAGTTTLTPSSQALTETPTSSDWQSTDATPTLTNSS

Rho-associated protein kinase 2, sequence (O75116 whole entry): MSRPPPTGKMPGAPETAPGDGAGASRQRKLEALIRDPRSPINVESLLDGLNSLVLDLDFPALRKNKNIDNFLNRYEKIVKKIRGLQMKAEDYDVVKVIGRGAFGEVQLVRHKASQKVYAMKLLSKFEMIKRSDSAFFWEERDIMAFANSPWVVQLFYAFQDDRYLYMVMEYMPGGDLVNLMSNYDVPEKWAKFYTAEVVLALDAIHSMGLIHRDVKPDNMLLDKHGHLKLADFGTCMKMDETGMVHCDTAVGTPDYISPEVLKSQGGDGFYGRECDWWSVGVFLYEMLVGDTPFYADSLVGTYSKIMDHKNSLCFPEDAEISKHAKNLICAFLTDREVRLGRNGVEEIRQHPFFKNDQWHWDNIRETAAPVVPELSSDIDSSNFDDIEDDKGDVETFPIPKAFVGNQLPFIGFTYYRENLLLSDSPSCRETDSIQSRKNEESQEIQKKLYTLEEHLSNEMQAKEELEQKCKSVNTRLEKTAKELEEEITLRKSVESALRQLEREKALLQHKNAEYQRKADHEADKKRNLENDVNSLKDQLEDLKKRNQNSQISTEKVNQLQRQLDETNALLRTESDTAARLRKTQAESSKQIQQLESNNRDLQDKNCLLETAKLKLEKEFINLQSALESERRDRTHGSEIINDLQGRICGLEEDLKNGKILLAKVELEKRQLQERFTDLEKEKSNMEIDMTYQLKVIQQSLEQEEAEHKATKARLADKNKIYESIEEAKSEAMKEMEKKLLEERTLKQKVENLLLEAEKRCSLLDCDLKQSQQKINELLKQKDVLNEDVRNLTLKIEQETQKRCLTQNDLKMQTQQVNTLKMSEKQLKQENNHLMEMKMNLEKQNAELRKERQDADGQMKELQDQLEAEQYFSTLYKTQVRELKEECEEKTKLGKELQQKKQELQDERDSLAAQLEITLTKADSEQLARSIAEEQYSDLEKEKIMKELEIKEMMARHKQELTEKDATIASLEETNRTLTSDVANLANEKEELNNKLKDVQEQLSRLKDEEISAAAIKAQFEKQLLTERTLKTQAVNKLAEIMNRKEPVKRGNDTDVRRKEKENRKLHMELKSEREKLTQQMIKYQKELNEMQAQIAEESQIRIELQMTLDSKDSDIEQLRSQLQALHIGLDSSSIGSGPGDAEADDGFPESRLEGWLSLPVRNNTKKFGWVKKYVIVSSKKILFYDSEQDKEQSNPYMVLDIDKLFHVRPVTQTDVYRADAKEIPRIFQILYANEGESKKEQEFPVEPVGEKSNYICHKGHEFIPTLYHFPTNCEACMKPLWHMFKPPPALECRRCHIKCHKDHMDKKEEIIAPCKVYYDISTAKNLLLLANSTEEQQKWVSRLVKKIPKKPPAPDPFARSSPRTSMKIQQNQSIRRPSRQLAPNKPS

| SMILES | Kd [1] | Kd [2] | Kd [3] | Kd [4] | Kd [5] | Kd [6] | Kd [7] | Kd [8] | Kd [9] |
| --- | --- | --- | --- | --- | --- | --- | --- | --- | --- |
| Cc1ccc(C(=O)Nc2ccc(Oc3cc4cnn(C)c4cc3-c3cn[nH]c3)c(F)c2)c(=O)n1-c1ccc(F)cc1 [MERESTINIB] | > 30 µM (inactive) | > 30 µM (inactive) | > 30 µM (inactive) | > 30 µM (inactive) | > 30 µM (inactive) | > 30 µM (inactive) | > 30 µM (inactive) | > 30 µM (inactive) | > 30 µM (inactive) |
| CC(C)(O)CC(=O)NCCn1ccc2ncnc(Nc3ccc(Oc4cccc(C(F)(F)F)c4)c(Cl)c3)c21 [TAK-285] | > 30 µM (inactive) | > 30 µM (inactive) | > 30 µM (inactive) | > 30 µM (inactive) | > 30 µM (inactive) | > 30 µM (inactive) | > 30 µM (inactive) | > 30 µM (inactive) | > 30 µM (inactive) |
| CNC(=O)c1cccc(-c2ccc3c(N4CCOC[C@@H]4C)nc(N4CCOC[C@@H]4C)nc3n2)c1 [VISTUSERTIB] | > 30 µM (inactive) | > 30 µM (inactive) | > 30 µM (inactive) | > 30 µM (inactive) | > 30 µM (inactive) | > 30 µM (inactive) | > 30 µM (inactive) | > 30 µM (inactive) | > 30 µM (inactive) |
| c1cc(OCCN2CCCCC2)cc(-c2n[nH]c3ccc(-c4nc[nH]n4)cc23)c1 [CC-401] | > 30 µM (inactive) | > 30 µM (inactive) | > 30 µM (inactive) | > 30 µM (inactive) | > 30 µM (inactive) | > 30 µM (inactive) | > 30 µM (inactive) | > 30 µM (inactive) | > 30 µM (inactive) |
| C=CC(=O)Nc1cc(Nc2nccc(-c3cn(C)c4ccccc34)n2)c(OC)cc1N(C)CCN(C)C [OSIMERTINIB] | > 30 µM (inactive) | > 30 µM (inactive) | > 30 µM (inactive) | > 30 µM (inactive) | > 30 µM (inactive) | > 30 µM (inactive) | > 30 µM (inactive) | > 30 µM (inactive) | > 30 µM (inactive) |
| COc1cc(Nc2ncc(F)c(Nc3ccc4c(n3)N(COP(=O)(O)O)C(=O)C(C)(C)O4)n2)cc(OC)c1OC [FOSTAMATINIB] | > 30 µM (inactive) | > 30 µM (inactive) | > 30 µM (inactive) | > 30 µM (inactive) | > 30 µM (inactive) | > 30 µM (inactive) | > 30 µM (inactive) | > 30 µM (inactive) | > 30 µM (inactive) |
| COc1ccc2c(OCc3nnc4ccc(-c5ccccc5)nn34)ccnc2c1 [AMG-208] | > 30 µM (inactive) | > 30 µM (inactive) | > 30 µM (inactive) | > 30 µM (inactive) | > 30 µM (inactive) | > 30 µM (inactive) | > 30 µM (inactive) | > 30 µM (inactive) | > 30 µM (inactive) |
| CC[C@@](C)(Nc1ccnc(-c2c[nH]c3ncccc23)n1)C(=O)NCC(F)(F)F [DECERNOTINIB] | 56.1 µM (active) | > 30 µM (inactive) | > 30 µM (inactive) | > 30 µM (inactive) | 2.83 µM (active) | > 30 µM (inactive) | > 30 µM (inactive) | > 30 µM (inactive) | > 30 µM (inactive) |
| O=c1[nH]c([C@@H]2CCCN2)nc2c1oc1ccc(Cl)cc12 | > 30 µM (inactive) | > 30 µM (inactive) | > 30 µM (inactive) | > 30 µM (inactive) | > 30 µM (inactive) | > 30 µM (inactive) | > 30 µM (inactive) | > 30 µM (inactive) | > 30 µM (inactive) |
| Cc1c(Cn2c(C)nc3c(C(=O)O)cc(N4CCOCC4)cc32)cccc1C(F)(F)F [GSK-2636771] | > 30 µM (inactive) | > 30 µM (inactive) | > 30 µM (inactive) | > 30 µM (inactive) | > 30 µM (inactive) | > 30 µM (inactive) | > 30 µM (inactive) | > 30 µM (inactive) | > 30 µM (inactive) |
| Cn1cc(-c2[nH]c3cc(NC(=O)[C@H](N)C4CCCCC4)cc4c3c2C=NNC4=O)cn1 | > 30 µM (inactive) | > 30 µM (inactive) | 1.17 µM (active) | > 30 µM (inactive) | > 30 µM (inactive) | > 30 µM (inactive) | 4.37 µM (active) | > 30 µM (inactive) | > 30 µM (inactive) |
| NC(=O)c1ccc(N(C(N)=O)c2c(F)cccc2F)nc1-c1ccc(F)cc1F [VX-702] | > 30 µM (inactive) | > 30 µM (inactive) | > 30 µM (inactive) | > 30 µM (inactive) | > 30 µM (inactive) | > 30 µM (inactive) | > 30 µM (inactive) | > 30 µM (inactive) | > 30 µM (inactive) |
| COCCN1CCN(Cc2ccc(-c3n[nH]c4c3C(=O)c3c(NC(=O)NN5CCOCC5)cccc3-4)cc2)CC1 [RGB-286638] | > 30 µM (inactive) | > 30 µM (inactive) | > 30 µM (inactive) | > 30 µM (inactive) | 1.72 µM (active) | > 30 µM (inactive) | > 30 µM (inactive) | > 30 µM (inactive) | 0.007 µM (active) |
| CCN1CCN(Cc2ccc(Nc3ncc(F)c(-c4cc(F)c5nc(C)n(C(C)C)c5c4)n3)nc2)CC1 [ABEMACICLIB] | > 30 µM (inactive) | > 30 µM (inactive) | > 30 µM (inactive) | > 30 µM (inactive) | > 30 µM (inactive) | > 30 µM (inactive) | > 30 µM (inactive) | > 30 µM (inactive) | 0.013 µM (active) |
